Experimental data: patent publication EP0562731A1, “Substituted pyridinesulfonamide compounds or their salts, process for preparing the same, and herbicides containing the same” (ISHIHARA SANGYO KAISHA, Ltd., priority 1992, dated 1993)

Key:
Format in all cases: in vivo
[1] = system: slender amaranth (Amaranthus viridis); assay: Test Example 1: foliar application pot test, visual growth control rating; parameters: key: 1: the same as in an untreated plot; 10: perfect growth control; settings: 1.25 g/a active ingredient, wettable powder, observed 20 to 31 days after application
Description: (§1) 1/1,500 are [are (a) = 100 m²] pots were filled with upland farming soil, which in the pots was then sown with a variety of plants. The plants grown will be enumerated below.
(§2) When each plant reached a given growth stage (a 1.2- to 3.0-leaf stage for rice, primary leaf to a 0.7-leaf stage for soybean, 2.1- to 3.6-leaf stage for corn, cotyledon to 0.7-leaf stage for cotton, 2.0- to 3.0-leaf stage for wheat, 0.3- to 3.4-leaf stage for cocklebur, 0.3- to 1.6-leaf stage for morning glory, 0.1- to 1.3-leaf stage for prickly sida, 0.1- to 1.3-leaf stage for slender amaranth, 1.5- to 3.2-leaf stage for barnyard glass, and 1.2- to 3.0-leaf stage for large crabgrass), a predetermined amount of the herbicide of the present invention in the form of a wettable powder, weighed out, diluted with 5 ℓ/a of water and admixed with 0.2 or 0.1 vol%, based on the resulting composition, of an agricultural spreader, was foliarly applied to the plant with a small spray gun. The progress of growth of the plant was visually observed 20 to 31 days after the foliar application to evaluate the degree of growth control according to 10 ratings (1: the same as in an untreated plot - 10: perfect growth control).

wheat (Triticum) = assay: as above; parameters: key: 1: the same as in an untreated plot; 10: perfect growth control; settings: 1.25 g/a active ingredient, wettable powder, observed 20 to 31 days after application
Description: as §1, §2

corn (Zea mays) = assay: as above; parameters: key: 1: the same as in an untreated plot; 10: perfect growth control; settings: 1.25 g/a active ingredient, wettable powder, observed 20 to 31 days after application
Description: as §1, §2

[2] = system: prickly sida (Sida spinosa); assay: as above; parameters: key: 1: the same as in an untreated plot; 10: perfect growth control; settings: 1.25 g/a active ingredient, wettable powder, observed 20 to 31 days after application
Description: as §1, §2

rice (Oryza sativa) = assay: as above; parameters: key: 1: the same as in an untreated plot; 10: perfect growth control; settings: 1.25 g/a active ingredient, wettable powder, observed 20 to 31 days after application
Description: as §1, §2

soybean (Glycine max) = assay: as above; parameters: key: 1: the same as in an untreated plot; 10: perfect growth control; settings: 1.25 g/a active ingredient, wettable powder, observed 20 to 31 days after application
Description: as §1, §2

[3] = system: barnyard grass (Echinochloa crus-galli); assay: as above; parameters: key: 1: the same as in an untreated plot; 10: perfect growth control; settings: 1.25 g/a active ingredient, wettable powder, observed 20 to 31 days after application
Description: as §1, §2

[4] = system: morning glory (Ipomoea purpurea); assay: as above; parameters: key: 1: the same as in an untreated plot; 10: perfect growth control; settings: 1.25 g/a active ingredient, wettable powder, observed 20 to 31 days after application
Description: as §1, §2

[5] = system: large crabgrass (Digitaria adscendens); assay: as above; parameters: key: 1: the same as in an untreated plot; 10: perfect growth control; settings: 1.25 g/a active ingredient, wettable powder, observed 20 to 31 days after application
Description: as §1, §2

[6] = system: cocklebur (Xanthium strumarium); assay: as above; parameters: key: 1: the same as in an untreated plot; 10: perfect growth control; settings: 1.25 g/a active ingredient, wettable powder, observed 20 to 31 days after application
Description: as §1, §2

[7] = system: velvet leaf (Abutilon theophrasti); assay: Test Example 2: foliar application pot test, visual herbicidal effect rating, single and combined herbicides; settings: velvet leaf 1.2-leaf stage, 25 days after foliar application; also: ranges in brackets are in %
Description: 1/10000-are pot was filled with upland farming soil and sown with velvet leaf (Abutilon theophrasti). When the plant reached the 1.2-leaf stage, a predetermined amount of the herbicide of the present invention diluted with 5 ℓ of water per are and admixed with 0.1 vol%, based on the aqueous solution, of an agricultural spreader ("Kusa Rino", produced by Nihon Nohyaku Co., Ltd.) was foliarly applied to the plant with a small spray gun. The herbicidal effect was visually observed 25 days after the foliar application and evaluated according to the rating system shown below.

Compound | degree of growth control, AM [1] | degree of growth control, TR (wheat (Triticum)) | degree of growth control, ZE (corn (Zea mays)) | degree of growth control, SI [2] | degree of growth control, OR (rice (Oryza sativa)) | degree of growth control, GL (soybean (Glycine max)) | degree of growth control, EC [3] | degree of growth control, IP [4] | degree of growth control, DI [5] | degree of growth control, XA [6] | Rating ([7]; 0.02 g/a) | Rating ([7]; 0.04 g/a) | Rating ([7]; 0.08 g/a) | Rating ([7]; 0.25 g/a) | Rating ([7]; 0.5 g/a) | Rating ([7]; 1.00 g/a)
CCCN(c1cccc(S(=O)(=O)NC(=O)Nc2nc(C)nc(OC)n2)n1)S(=O)(=O)CC [Compound No. 3] | 10 | 4 | 8 | 6 | 6 | 3 | 9 | 5 | 6 | 8 |  |  |  |  |  | 
CCC(C)N(c1cccc(S(=O)(=O)NC(=O)Nc2nc(C)nc(OC)n2)n1)S(=O)(=O)C(C)CC (racemic) [compound 81] | 3 | 2 | 2 | 2 | 5 | 6 | 6 | 6 | 3 | 9 |  |  |  |  |  | 
CCCN(c1cccc(S(=O)(=O)NC(=O)Nc2nc(OC)nc(OC)n2)n1)S(=O)(=O)CC [compound 8] | 7 | 3 | 5 | 3 | 3 | 4 | 5 | 4 | 5 | 6 |  |  |  |  |  | 
CCOC(=O)c1ccccc1S(=O)(=O)NC(=O)Nc1nc(Cl)cc(OC)n1 [Chlorimuron-ethyl, ethyl 2-[[[[(4-chloro-6-methoxy-2-pyrimidinyl)amino]carbonyl]amino]sulfonyl]benzoate] |  |  |  |  |  |  |  |  |  |  | 6 (60-69) | 8 (80-89) | 9 (90-99) |  |  | 
CCN(c1cccc(S(=O)(=O)NC(=O)Nc2nc(OC)nc(OC)n2)n1)S(=O)(=O)CC(F)(F)F [compound 92] | 5 | 9 | 7 | 6 | 5 | 7 | 6 | 10 | 3 | 10 |  |  |  |  |  | 
CCCCN(c1cccc(S(=O)(=O)NC(=O)Nc2nc(C)nc(OC)n2)n1)S(=O)(=O)CCCC [compound 43] | 5 | 3 | 3 | 3 | 2 | 4 | 3 | 3 | 6 | 6 |  |  |  |  |  | 
CCCCN(c1cccc(S(=O)(=O)NC(=O)Nc2nc(C)nc(OC)n2)n1)S(=O)(=O)C(C)C [Compound No. 4] | 9 | 2 | 10 | 6 | 8 | 4 | 7 | 6 | 3 | 9 |  |  |  |  |  | 
CCCCN(c1cccc(S(=O)(=O)NC(=O)Nc2nc(C)nc(OC)n2)n1)S(C)(=O)=O [compound 32] | 6 | 2 | 3 | 4 | 3 | 3 | 3 | 5 | 6 | 6 |  |  |  |  |  | 
CCS(=O)(=O)N(c1cccc(S(=O)(=O)NC(=O)Nc2nc(C)nc(OC)n2)n1)C(C)C [compound 6] | 9 | 3 | 10 | 6 | 6 | 3 | 6 | 8 | 4 | 7 |  |  |  |  |  | 
CCCS(=O)(=O)N(C)c1cccc(S(=O)(=O)NC(=O)Nc2nc(C)nc(OC)n2)n1 [compound 39] | 9 | 3 | 3 | 3 | 3 | 4 | 3 | 5 | 4 | 5 |  |  |  |  |  | 
CS(=O)(=O)NC(=O)c1cc(Oc2ccc(C(F)(F)F)cc2Cl)ccc1[N+](=O)[O-] [Fomesafen, 5-[2-chloro-4-(trifluoromethyl)phenoxy]-N-(methylsulfonyl)-2-nitrobenzamide] |  |  |  |  |  |  |  |  |  |  |  |  |  | 3 (30-39) | 7 (70-79) | 7 (70-79)
CCN(c1cccc(S(=O)(=O)NC(=O)Nc2nc(C)nc(OC)n2)n1)S(=O)(=O)CCl [compound 60] | 9 | 2 | 5 | 5 | 6 | 4 | 6 | 7 | 4 | 9 |  |  |  |  |  | 
CCN(c1cccc(S(=O)(=O)NC(=O)Nc2nc(C)nc(OC)n2)n1)S(=O)(=O)CC [compound 37] | 9 | 1 | 3 | 3 | 2 | 2 | 4 | 3 | 2 | 4 |  |  |  |  |  | 
CCCCS(=O)(=O)N(CC(C)C)c1cccc(S(=O)(=O)NC(=O)Nc2nc(C)nc(OC)n2)n1 [compound 82] | 7 | 4 | 8 | 1 | 4 | 3 | 4 | 6 | 3 | 9 |  |  |  |  |  | 
CCS(=O)(=O)N(c1cccc(S(=O)(=O)NC(=O)Nc2nc(OC)nc(OC)n2)n1)C(C)C [compound 7] | 9 | 2 | 10 | 3 | 3 | 3 | 2 | 6 | 2 | 7 |  |  |  |  |  | 
